Data from patent US5006555A, “Esters of 2-arylmethyl-1-naphthol derivatives as 5-lipoxygenase inhibitors” (E. I. Du Pont de Nemours and Company, priority 1990, dated 1991).

Key:
5-lipoxygenase = molecular target: T1, 5-lipoxygenase (Rattus norvegicus, UniProt P12527); assay: 5-lipoxygenase inhibition in vitro, RBL-1 cell supernatant as enzyme source; type: biochemical; conditions: 10,000 xg supernatant of homogenized rat basophilic leukemia (RBL-1) cells, pH 7.0 phosphate buffer, 14C-arachidonic acid, 37°, two minutes
T1 construct: endogenous in cells; host or cells: RBL-1 (rat basophilic leukemia) cells, 10,000 xg supernatant of the homogenate
T1 sequence (P12527 1-673): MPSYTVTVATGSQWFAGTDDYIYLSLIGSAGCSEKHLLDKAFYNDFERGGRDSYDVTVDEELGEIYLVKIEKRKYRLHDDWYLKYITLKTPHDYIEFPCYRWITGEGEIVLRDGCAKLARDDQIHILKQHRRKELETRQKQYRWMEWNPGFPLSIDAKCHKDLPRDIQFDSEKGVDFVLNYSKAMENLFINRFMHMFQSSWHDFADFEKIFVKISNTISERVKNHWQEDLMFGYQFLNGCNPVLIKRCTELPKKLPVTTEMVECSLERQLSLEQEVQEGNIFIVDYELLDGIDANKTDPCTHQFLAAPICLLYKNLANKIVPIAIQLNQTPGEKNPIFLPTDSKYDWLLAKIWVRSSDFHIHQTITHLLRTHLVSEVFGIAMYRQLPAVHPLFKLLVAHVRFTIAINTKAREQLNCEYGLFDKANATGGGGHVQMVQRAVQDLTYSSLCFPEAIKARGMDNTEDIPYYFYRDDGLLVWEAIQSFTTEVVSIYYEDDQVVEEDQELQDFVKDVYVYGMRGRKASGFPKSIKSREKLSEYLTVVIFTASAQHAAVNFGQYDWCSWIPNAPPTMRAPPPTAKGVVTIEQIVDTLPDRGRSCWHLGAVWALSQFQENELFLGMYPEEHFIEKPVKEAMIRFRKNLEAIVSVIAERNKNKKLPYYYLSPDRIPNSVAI
Protocol: The test method is a modification of the procedure developed by Jakschik et al. (Prostaglandins (1978) 16. 733; Biochem. Biophys. Res. Commun. (1980) 95. 103; Biochem. Biophys, Res. Commun. (1981) 102 624).
The 10,000 xg supernatant from homogenized RBL-1 cells was incubated with test compound in a pH 7.0 phosphate buffer for about five minutes. ^14 C-arachidonic acid was added to initiate the reaction, which was allowed to continue at 37° for two minutes. The reaction was stopped by freezing in a dry ice/ethanol slurry and the 5-lipoxygenase products were separated from the substrate on silica gel columns. The amount of individual lipoxygenase products produced was determined and the percent inhibition calculated.

[1] = tested on: arachidonic acid-induced ear edema; assay: arachidonic acid-induced ear edema in mice; type: in vivo; conditions: Mus musculus, 1 h; 100 μg/ear topical in acetone, CF1 mice, 1 mg arachidonic acid, one hour after challenge; >30% significant, 50% and above good to excellent
Protocol: This assay indicates a specific use in the treatment of skin diseases such as psoriasis. This assay also implies a reduction in leukotrienes caused by the compounds of the invention and indicates the use of these compounds in other diseases where the production of leukotrienes is involved in the pathological process. The assay is a modification of the procedure described by Young et al. (J. Invest. Dermatol. (1983) 80. 48).
Arachidonic acid (1 mg) was applied as an acetone solution to the inner surface of the pinna of CF1 mice. Test compound dissolved in acetone was applied to the ear just prior to the arachidonic acid challenge. One hour after challenge, 6 mm disks were removed from the ear with a biopsy punch and the weight determined. The results were determined as a percent inhibition of the swelling which occurred in the absence of the test compound.
Significant inhibitory activity is considered to be greater than 30% inhibition. 50% and above is considered to be good to excellent activity.

Compound	IC50 (5-lipoxygenase) [µM]	inhibition in vivo at 100 µg/ear [1] [%]
CC(=O)Oc1c(Cc2ccccc2)ccc2ccccc12 [Example 1, 1-acetoxy-2-phenylmethylnaphthalene]	0.14	66
CCOC(=O)Oc1c(Cc2ccccc2)ccc2ccccc12 [Example 2, 1-ethoxycarbonyloxy-2-phenylmethyl naphthalene]	1.2	50
O=C(O)CCC(=O)Oc1c(Cc2ccccc2)ccc2ccccc12 [Example 3, 1-(3-carboxvpropionvloxv)-2-phenylmethvlnaphthalene]	0.53	
CN(C)CCCC(=O)Oc1c(Cc2ccccc2)ccc2ccccc12 [Example 4, 1-(4-demethylamine-butyryloxy)-2-phenylmethvlnaohthalene hvdrochloride]	0.52	44
CC(=O)Oc1c(Cc2ccccc2F)ccc2ccccc12 [Example 7]		72
CC(=O)Oc1c(Cc2cccc(F)c2)ccc2ccccc12 [Example 8]	0.062	
COc1ccc(Cc2ccc3ccccc3c2OC(C)=O)cc1 [Example 10]	0.09	53
COc1ccc(Cc2ccc3ccccc3c2OC(C)=O)cc1OC [Example 11]	0.58	
CC(=O)Oc1ccc(Cc2ccc3ccccc3c2OC(C)=O)cc1OC(C)=O [Example 12, 1-acetoxy-2-(3,4-diaacetoxyphenylmethyl)naphthalene]	1.6	35
CC(=O)Oc1c(Cc2ccc3c(c2)OCO3)ccc2ccccc12 [Example 14]	0.19	
CC(=O)Oc1c(Cc2ccc(N(C)C)cc2)ccc2ccccc12 [Example 15, 1-acetoxy-2-(4-dimethylaminophenylmethyl)naphthalene]	0.81	49
CC(=O)Oc1c(Cc2cccs2)ccc2ccccc12 [Example 17]	0.07	52
